Measurements published in patent US4866040A, “Aminocarnitine directed pharmaceutical agents” (priority 1987, dated 1989).
Square brackets hold non-standard residues; d marks the D form. Peptide text beside a SMILES is read from it. Cya = N[CH](CS(=O)(=O)O)C(=O)O

How the values were obtained:
[1] = system: platelet Ca-activated protease; assay: inhibition of platelet Ca-activated protease; assay type: biochemical; details: final in-vitro conc. 1 mM
From the text: The following results were obtained for inhibition of platelet Ca-activated protease: […]

[2] = in vivo, po; cited from earlier work
[3] = active transport; cited from earlier work
Ca-activated protease = assay: in vitro inhibition of Ca-activated protease; assay type: biochemical; details: for % of Control (Ca-activated protease activity): in vitro, 100 ug; for % of Control (Ca-activated protease activity) after hydrolysis: 100ug, hydrolysis at 60° C., pH 2
From the text: It has been shown that in vitro carnitylleucylargininal inhibits Ca-activated protease as well as leupeptin, viz.

[4] = system: muscle Ca-activated protease; assay: in-vivo administration, inhibition of muscle Ca-activated protease; set-up: species or system rats; details: for % Inhibition of muscle Ca-activated protease: 2 hours post IP injection

Compound | % Inhibition of platelet Ca-activated protease [1] [%] | % of Control (Ca-activated protease activity) (Ca-activated protease) [%] | other results
N[C@@H](CS(=O)(=O)O)C(=O)O [Cysteic acid (CDI treated), cysteic acid] | 0 |  | 
C[N+](C)(C)C[C@H](N)CC(=O)[O-] [aminocarnitine] |  |  | toxicity when fed orally [2]: non-toxic
C[N+](C)(C)CC(O)CC(=O)[O-] (stereo not shown) [carnitine] |  | 84 | concentration in cardiac and skeletal muscle relative to plasma [3]: 50-100 times
CC(C)CC(NC(=O)C(N)CS(=O)(=O)O)C(=O)NC(C=O)CCCNC(=N)N (stereo not drawn) [cysteicleucylargininal] (H-[Cya]-Leu-Arg-aldehyde; configuration not given here) | 98 |  | 
CC(C)C[C@H](N)C(=O)N[C@H](C=O)CCCNC(=N)N [leucylargininal, leucyl argininal] | 94 |  | 
CC(=O)N[C@@H](CC(C)C)C(=O)N[C@@H](CC(C)C)C(=O)N[C@H](C=O)CCCNC(=N)N [leupeptin] | 98 | 7.9 | % Inhibition of muscle Ca-activated protease ([4]; 74 umoles): 20%
E-aminoadipic acid [E-aminoadipic acid (CDI treated)] | 0 |  | 
carnitylleucylargininal |  | 4.6 | % Inhibition of muscle Ca-activated protease ([4]; 19 umoles): 48%; effectiveness per umole relative to leupeptin in inhibiting Ca-activated protease in skeletal muscle ([4]; injected into rats): about ten times more effective per umole
carnitylleucylargininal dibutylacetal |  |  | % of Control (Ca-activated protease activity) after hydrolysis (Ca-activated protease; 0 time): 17%; % of Control (Ca-activated protease activity) after hydrolysis (Ca-activated protease; 3 hours): 1.2%; % of Control (Ca-activated protease activity) after hydrolysis (Ca-activated protease; 24 hours): 100%
